Test results reported in ChEMBL document CHEMBL4138289, “Structurally Diverse Cytotoxic Dimeric Chalcones from Oxytropis chiliophylla” (J Nat Prod, 2018).

Columns and labels:
PC-3 [1] = assay: Cytotoxicity against human PC3 cells at 5 uM after 48 hrs by MTT assay relative to control; format: functional
PC-3 [2] = assay: Cytotoxicity against human PC3 cells at 25 uM after 48 hrs by MTT assay relative to control; format: functional
PC-3 [3] = assay: Growth inhibition of human PC3 cells after 48 hrs by MTT assay; format: functional, cell-based; conditions: PC-3, 48 h

Question: Which results are given for `O=C(c1ccc(O)cc1O)[C@@H]1[C@H](C(=O)c2ccc(O)cc2O)[C@@H](c2ccccc2)[C@H]1c1ccccc1`?
Answer: Activity (PC-3 [1]): 27.1%; Activity (PC-3 [2]): 78.8%

Question: With `O=C(c1ccc(O)cc1O)[C@@H]1[C@@H](C(=O)c2ccc(O)cc2O)[C@H](c2ccccc2)[C@H]1c1ccccc1` as the compound, how does the Activity (PC-3 [1]) read?
Answer: 41.2%

Question: What about the IC50 (PC-3 [3]) of the same compound?
Answer: 3.8 µM

Question: What about the Activity (PC-3 [2]) of the same compound?
Answer: 96.3%

Question: Which Activity (PC-3 [1]) does the source give for `O=C(c1ccc(O)cc1O)[C@@H]1Cc2ccccc2[C@H](C(=O)c2ccc(O)cc2O)[C@@H]1c1ccccc1` here?
Answer: 22.3%

Question: And the Activity (PC-3 [2])?
Answer: 73.4%

Question: With `O=C(c1ccc(O)cc1O)[C@H]1Cc2ccccc2[C@@H](C(=O)c2ccc(O)cc2O)[C@H]1c1ccccc1` as the compound, how does the Activity (PC-3 [1]) read?
Answer: 46.1%

Question: What about the Activity (PC-3 [2]) of the same compound?
Answer: 86.3%

Question: For `O=C(c1ccc(O)cc1O)[C@H]1[C@H](c2ccccc2)[C@@H](C(=O)c2ccc(O)cc2O)[C@@H]1c1ccccc1`, which Activity (PC-3 [1]) is on record?
Answer: 12.8%

Question: And the Activity (PC-3 [2])?
Answer: 76.7%

Question: What does the source list for `O=C(c1ccc(O)cc1O)[C@H]1[C@H](C(=O)c2ccc(O)cc2O)[C@H](c2ccccc2)[C@@H]1c1ccccc1`?
Answer: Activity (PC-3 [1]): 30.7%; Activity (PC-3 [2]): 87.6%

Question: What does the source list for `O=C(c1ccc(O)cc1O)[C@@H]1[C@@H](C(=O)c2ccc(O)cc2O)[C@H](c2ccccc2)[C@@H]1c1ccccc1`?
Answer: Activity (PC-3 [1]): 29%; Activity (PC-3 [2]): 75.5%

Question: With `O=C(c1ccc(O)cc1O)[C@H]1[C@H](C(=O)c2ccc(O)cc2O)[C@@H](c2ccccc2)[C@@H]1c1ccccc1` as the compound, how does the Activity (PC-3 [1]) read?
Answer: 49.7%

Question: What about the IC50 (PC-3 [3]) of the same compound?
Answer: 3.5 µM

Question: What about the Activity (PC-3 [2]) of the same compound?
Answer: 97.6%

Question: How did the Activity (PC-3 [1]) turn out when `O=C(c1ccc(O)cc1O)[C@H]1[C@H](c2ccccc2)[C@H](C(=O)c2ccc(O)cc2O)[C@H]1c1ccccc1` was run?
Answer: 29.6%

Question: And the Activity (PC-3 [2])?
Answer: 88%

Question: With `O=C(c1ccc(O)cc1O)[C@H]1[C@H](c2ccccc2)[C@H](C(=O)c2ccc(O)cc2O)[C@@H]1c1ccccc1` as the compound, how does the Activity (PC-3 [1]) read?
Answer: 12.3%

Question: And the Activity (PC-3 [2])?
Answer: 57.9%

Question: What does the source list for `O=C(/C=C/c1ccccc1)c1ccc(O)cc1O` [2',4'-DIHYDROXYCHALCONE]?
Answer: Activity (PC-3 [1]): 16.6%; Activity (PC-3 [2]): 66.2%
